Measured values from article PMC5554220, “A Novel Aldosterone Antagonist Limits Renal Injury in 5/6 Nephrectomy” (Scientific Reports, 2017).

Legend:
[1] = tested on: rats with 5/6 renal ablation (Nx); assay: Protocol 2 (late treatment), 5/6 renal ablation (Nx); type: in vivo, male Munich-Wistar rats
From the text: (§1) One-hundred forty-five adult male Munich-Wistar rats, obtained from a local facility at the Faculty of Medicine, University of São Paulo, weighing between 220 and 250 g, were used in this study. All experimental procedures were approved by the local Research Ethics Committee (Comissão de Ética para Análise de Projetos de Pesquisa do Hospital das Clínicas da Faculdade de Medicina da Universidade de São Paulo, CAPPesq, process n° 0905/09), and carried out following strictly our institutional guidelines and current international standards for manipulation and care of laboratory animals. Body weights and general conditions were assessed daily. Five-sixths renal ablation (Nx) was performed as a single-step procedure under anesthesia with ketamine 50 mg/kg and xylazine 10 mg/kg im. After ventral laparotomy, the right kidney was excised and two or three branches of the left renal artery were ligated, so as to promote infarction of two-thirds of the left kidney. The operation was invariably well tolerated. Sham-operated rats underwent anesthesia and manipulation of the renal pedicles without removal of renal mass. After surgery, rats received enrofloxacin and, upon recovery, had free access to tap water and regular rodent chow containing 0.5 Na and 22% protein (Nuvital Labs, Curitiba, Brazil), and were kept at 23 ± 1 °C and 60 ± 5% relative air humidity, under an artificial 12–12 hour light/dark cycle. Rats were then treated following two different experimental protocols (described later).
In Protocol 2, adult male Munich-Wistar rats were subjected to Nx as described earlier, and left untreated for two months. At this time, TCP and UalbV were assessed as described earlier. Rats with TCP ≤ 170 mmHg or UalbV ≤ 40 mg/day were excluded from the study. The remaining […] Nx rats were divided into four experimental groups: Nx + V (N = 14), untreated Nx rats; Nx + L (N = 15), receiving oral L, 50 mg/kg in drinking water; Nx + L + Eple (N = 14), receiving L and Eple (N = 14), 150 mg/kg/day; and Nx + L + Ly (N = 14), receiving L and Ly (20 mg/kg/day) as described before. A group of S rats (N = 16) was also included. All groups were followed for 90 days after treatments were started (150 days after nephrectomy), with monthly measurement of TCP and UalbV. At the end of this period, rats were anesthetized, blood was collected, and the renal tissue was perfusion-fixed and prepared for histomorphometric and immunohistochemical examination in the same manner as for Protocol 1.
(§2) Histomorphometric analysis was performed blindly by two independent observers. The extent of glomerular injury was estimated, in PAS-stained sections, by determining the percentage of glomeruli with sclerotic lesions. The fraction of the renal cortical area occupied by interstitial tissue (%INT) was estimated in 25 consecutive microscopic fields of Masson-stained sections by a point-counting technique, at a final magnification of 200X, under a 144-point grid.
Immunohistochemistry was performed on 4-μm-thick sections, mounted on glass slides precoated with 2% silane. Sections were deparaffinized and rehydrated by conventional techniques, then heated in citrate buffer for antigen retrieval and incubated overnight with the primary antibody at 4 °C (no antibody in negative control experiments). Primary antibodies used were: monoclonal mouse anti-rat ED-1 (Serotec, Oxford, UK); polyclonal rabbit anti-human AngII (Peninsula Laboratories, San Carlos, CA); and polyclonal rabbit anti-collagen I (Abcam, Cambridge, UK).
For ED-1 detection, sections were preincubated with 5% normal rabbit serum to prevent nonspecific binding, then incubated overnight at 4 °C with the primary antibody diluted in BSA at 1%. […]

[2] = tested on: rats with 5/6 renal ablation (Nx); assay: Protocol 1 (early treatment), 5/6 renal ablation (Nx); type: in vivo, male Munich-Wistar rats
From the text: as §1
In this first protocol, Nx rats were divided into groups: NX + V (N = 8), receiving vehicle; NX + Eple (N = 8), receiving oral (mixed with the chow) Eple, 150 mg/kg/day; and Nx + Ly (N = 8), receiving oral Ly, 20 mg/kg/day. A group of sham-operated rats (S, N = 7) was also studied. Treatments were started 24 h after surgery. Rats were followed during 60 days, with determination of TCP and UalbV on Days 30 and 60. TCP was assessed with an optoelectronic automated device (Visitech Systems, Apex, NC), after rats had been preconditioned so as to remain calm during the procedure. UalbV was measured with a conventional immunodiffusion technique. On Day 60, rats were anesthetized as described before, and blood was collected from the abdominal aorta for determination of serum creatinine, serum K^+, PRA and PAC. The remnant kidney was then perfusion-fixed with Duboscq-Brazil solution after a brief washout with saline to remove blood from renal vessels, and prepared for histomorphometric and immunohistochemical analyses using conventional sequential techniques.
as §2
PRA and PAC were determined using commercially available radioimmunoassay kits (Renin Active IRMA and Aldosterone Active RIA, Beckman Coulter, Carlsbad, CA).

Nx rats = assay: Preliminary experiments to determine the doses of Eple and Ly; type: in vivo
Method: Preliminary experiments were performed to exclude the possibility that any differences between Eple and Ly, both in monotherapy and as add-ons to L, were simply due to the use of inadequately low doses of either compound. In the first set of experiments, Nx rats received Eple at the recommended dose of 85 mg/kg, and at 150 mg/kg, higher than in most studies reported so far. […] Other Nx rats received Ly at either 12 mg/kg (the recommended dose) or 20 mg/kg. […] Based on these preliminary results, we set the doses of Eple and Ly at 150 mg/kg and 20 mg/kg, respectively.

[3] = target: T1, human glucocorticoid receptor (hGR) (Homo sapiens, UniProt P04150); assay: Radioligand binding, hGR expressed in HEK293 cells; conditions: hGR expressed in HEK293 cells; read-out: Mean Ki ± SEM hGR*
T1 construct: expressed in transfected cells; host or cells: HEK293 cells
T1 sequence (P04150 1-777): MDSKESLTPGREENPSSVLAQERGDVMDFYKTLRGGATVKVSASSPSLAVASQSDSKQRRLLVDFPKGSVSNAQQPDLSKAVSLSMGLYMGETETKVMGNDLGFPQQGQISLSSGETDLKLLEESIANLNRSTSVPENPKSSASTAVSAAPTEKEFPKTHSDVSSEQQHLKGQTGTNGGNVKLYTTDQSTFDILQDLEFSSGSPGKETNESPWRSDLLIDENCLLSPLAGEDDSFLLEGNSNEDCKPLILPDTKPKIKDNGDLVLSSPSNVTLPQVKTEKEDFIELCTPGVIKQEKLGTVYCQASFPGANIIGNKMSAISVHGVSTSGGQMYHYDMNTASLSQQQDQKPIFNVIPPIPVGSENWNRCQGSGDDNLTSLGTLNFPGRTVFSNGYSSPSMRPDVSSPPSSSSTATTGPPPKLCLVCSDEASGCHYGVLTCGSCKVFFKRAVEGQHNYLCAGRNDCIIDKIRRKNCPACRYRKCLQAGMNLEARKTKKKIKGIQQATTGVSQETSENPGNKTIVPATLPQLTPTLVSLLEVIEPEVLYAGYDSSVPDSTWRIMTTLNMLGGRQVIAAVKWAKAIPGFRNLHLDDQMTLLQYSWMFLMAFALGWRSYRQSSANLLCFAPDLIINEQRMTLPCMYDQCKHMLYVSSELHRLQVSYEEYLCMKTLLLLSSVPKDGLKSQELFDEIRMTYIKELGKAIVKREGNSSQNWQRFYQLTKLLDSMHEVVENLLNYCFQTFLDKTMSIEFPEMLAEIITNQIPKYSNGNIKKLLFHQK
Method: Affinity of ligands to the soluble receptor was determined using vacuum filtration methods, preparing soluble receptors in 96-well Falcon polystyrene plates (BD Biosciences, Bedford, MA) in a total volume of 250 μl. The hMR Sf9 lysate (approximately 20–25 μg protein in 20 μl) was incubated in the absence or presence of competing ligands with 10 μl of [1,2,6,7-3H] […] Binding studies for ligands for hPR and hAR were determined using [1,2,6,7-3H(N)] Progesterone (specific activity 103 Ci/mmol, at a final concentration 0.5 nM; NET381, NEN/Perkin Elmer Life Sciences, Boston, MA) and [17α-methyl-3H] Mibolerone, an enzymaticaly stable analog of testosterone (specific activity 76.8 Ci/mmol, final concentration 0.3 nM; NET919, NEN), respectively. Specific binding of 3H-progesterone for hPR and 3H-mibolerone for hAR was determined in the presence and absence of 1 μM mifepristone. Inhibition constants (Ki), were determined either from the Cheng-Prusoff equation[32], or directly using non-linear regression curve fitting to a three-parameter one-site competitive equation. Ki values obtained from individual concentration response curves were reported as the mean ± SEM. Protein was measured using colorimetric detection and quantification of bicinchoninic acid (BCA Protein Assay, Pierce, Rockford, IL). Cos-7L cells were cotransfected with expression vectors and a reporter plasmid responsive to all 3 nuclear hormone receptors. pBluescript II SK (+) (Stratagene, San Diego, CA) was included as a source of carrier DNA. The number of repetitions of full concentration response curves (n) represents values from at least two independent experiments for each condition. Concentration response curves were analyzed statistically using a four-parameter logistic equation (Hill equation for sigmoid curves). Similar methodology was adopted for the human glucocorticoid receptor (hGR) expressed in HEK293 cells.

SMILES	Density of interstitial AngII+ cells ([1]; Day 150)	Interstitial macrophage infiltration ([1]; Day 150)	Percent cortical area occupied by collagen I (interstitial fibrosis) ([1]; Day 150)	Percentage of glomeruli with sclerotic lesions (GS%) ([1]; Day 150)	Plasma aldosterone concentration (PAC) ([1]; Day 150)	Plasma renin activity (PRA) ([1]; Day 150)	Albumin excretion rate (UalbV) ([1]; treatment Day 60-150)	Tail-cuff pressure (TCP) ([1]; treatment Day 60-150, L 50 mg/kg, Eple 150 mg/kg/day, Ly 20 mg/kg/day)	Albumin excretion rate (UalbV) ([2]; 60 days after ablation, Eple 150 mg/kg/day, Ly 20 mg/kg/day oral)	Fractional cortical interstitial area ([2]; Day 60)	Left kidney weight corrected for body weight (renal hypertrophy) ([2]; Day 60)	Plasma aldosterone concentration (PAC) ([2]; Day 60)	Plasma K+ levels ([2]; Day 60, versus Nx + V)	Tail-cuff pressure (TCP) ([2]; Eple 150 mg/kg/day, Ly 20 mg/kg/day oral)	Maximal nontoxic dose, defined by stunting of body growth (Nx rats) [mg/kg]	Dose-response effect on the parameters studied (Nx rats; Eple 85 mg/kg vs 150 mg/kg)	PRA (Nx rats; Eple 150 mg/kg dose vs 85 mg/kg)	Body growth (Nx rats; Eple, dose higher than 150 mg/kg)	Ki [3] [nM]
CCCCc1nc(Cl)c(CO)n1Cc1ccc(-c2ccccc2-c2nn[nH]n2)cc1 [L, losartan]	not significantly altered	numerically but not significantly reduced	failed to reduce significantly	partly prevented GS	significantly reduced PAC compared to S or Nx + V	normalized PRA	prevented the progression of albuminuria	mitigated											
COC(=O)[C@@H]1CC2=CC(=O)CC[C@]2(C)[C@@]23O[C@@H]2C[C@@]2(C)[C@@H](CC[C@@]24CCC(=O)O4)[C@H]13 [Eplerenone, eplerenone, reference compound]						significantly elevated compared to S, Nx and Nx + L			slightly, but not significantly, attenuated	only slightly attenuated	no effect on renal weight	exacerbated hyperaldosteronemia	not aggravated	partially prevented the elevation of TCP	150	No dose-response effect was observed	slight increase in PRA	body growth limitation	
CC(=O)S[C@@H]1CC2=CC(=O)CC[C@]2(C)[C@H]2CC[C@@]3(C)[C@@H](CC[C@@]34CCC(=O)O4)[C@H]12 [Spironolactone, spironolactone, reference compound]																			33 ± 7
